# Results as given in patent US10980723B2, “Non-aqueous composition for hair frizz reduction” (The Procter & Gamble Company, priority 2017, dated 2021).
# Test: Hair Switch Frizz Assessment by ten expert graders
# Details: for Results of Hair Switch Rating (frizz protection, clean feel, greasy feel) in words: aqueous compositions, Tables 3 and 4, 1% material; for Results of Hair Switch Rating (frizz protection, clean, smooth, greasy feel) in words: non-aqueous compositions, Tables 9 and 10, 1% material
# Description: The leave-on treatment compositions are prepared by adding the Moisture Control Materials and perfume, if needed, into a 50:50 ethanol/water carrier and stirred until complete dissolution. The solution pH is adjusted using sodium hydroxide (50% w/w) to a final pH of 4.0-4.2. […] Method of Making Non-Aqueous Leave-on Treatment Compositions The non-aqueous leave-on treatment compositions are prepared by adding the Moisture Control Materials and perfume, if needed, into a mixture of Dimethiconol/Dimethicone and Cyclopentasiloxane/Isododecane and stirred until complete dissolution. Additionally, propylene glycol is added to aid in dissolution of moisture control materials at high levels of dimethicone. […] Method of Making of Non-Aqueous Leave-on Treatment Composition in a Solid Form The leave-on treatment composition in solid form is prepared by mixing together two different compositions. A premix and main-mix. […] In-Use Product Feel Assessment on Hair Switch Ten expert graders are asked to apply formulation on hair and rate each formulation based on a 5 point scale for in-use feel assessment, 5 being the highest (best feel) and 1 being the lowest rating. Method of Determining Stability of the Compositions Leave-on compositions are kept at 40° C. at 60% RH to visually assess any precipitation on day 1 and after a week of storage at these conditions.
# Then, ten experts are asked to rate each hair switch in terms of frizz, clean feel, and greasy feel, based on a 5 point scale, 5 being the highest and 1 being the lowest rating.
# Then, ten experts are asked to rate each hair switch in terms of frizz, clean feel, smooth feel and greasy feel, based on a 5 point scale, 5 being the highest and 1 being the lowest rating.
SMILES,"Results of Hair Switch Rating (frizz protection, clean feel, greasy feel) in words","Results of Hair Switch Rating (frizz protection, clean, smooth, greasy feel) in words"
O=C(OCCO)c1ccccc1O [2-Hydroxyethyl salicylate],provide frizz protection with clean feel and without greasy feel negative,"provide frizz protection with clean, smooth feel and without greasy feel negative"
"O=C(O)c1ccc(O)cc1O [2,4-Dihydroxybenzoic acid]",provide frizz protection with clean feel and without greasy feel negative,provide frizz protection with clean and smooth feel and without greasy feel negative
O=C(O)c1ccccc1O [Salicylic acid],provide frizz protection with clean feel and without greasy feel negative,provide frizz protection with clean and smooth feel and without greasy feel negative
CC(C)CCCCCCCCCCCCCCCOC(=O)CCCCCCCCCCCCCCC(C)C [Isostearyl isostearate],provide frizz protection with clean feel and without greasy feel negative,"provide frizz protection with clean, smooth feel and without greasy feel negative"
O=C(O)c1cc(Cl)ccc1O [5-Chlorosalicylic acid],provide frizz protection with clean feel and without greasy feel negative,provide frizz protection with clean and smooth feel and without greasy feel negative
CCCCCCCCC(CO)CCCCCC (centres unmarked) [2-Hexyl-1-decanol],provide frizz protection with clean feel and without greasy feel negative,"provide frizz protection with clean, smooth feel and without greasy feel negative"
O=S(=O)(O)c1ccc(O)cc1 [4-Hydroxybenzenesulphonic acid],provide frizz protection with clean feel and without greasy feel negative,provide frizz protection with clean and smooth feel and without greasy feel negative
